Results from US9205073B2, “Method for treating virus infection using derivative of aniline” (CHINA MEDICAL UNIVERSITY, priority 2014, dated 2015).

How the values were obtained:
EV71 [1] = assay: Enterovirus infection-induced cytopathic effect / cell survival in RD cells with interferon; assay type: cell-based, enterovirus type 71; details: for Cell survival rate: 36 hours
Protocol: The RD cells were cultured in a 24-well culture plate at an initial density of 3×10^4 per well with 1 ml of 2% FBS-containing MEM medium per well. The cells were incubated in an incubator (37° C., 5% CO2) overnight. The medium was removed until the cells adhered to the plate. 1 ml of fresh 2% FBS-containing MEM medium was simultaneously added into each well. The RD cells were infected with an EV71 virus strain (M.O.I.=0.1). […] The RD cells were incubated in an incubator (37° C., 5% CO2) for 36 hours, and then their morphology was observed by photography. In addition, 200 μl of culture medium supernatant was collected from each well and stored at −80° C. for conducting the viral plaque test of Example 12.

JEV T1P1 [2] = assay: Cytopathic effect test, JEV T1P1-infected BHK-21 cells; assay type: cell-based, Japanese encephalitis virus
Protocol: (§1) BHK-21 cells and/or TE671cells were separately cultured in a 24-well culture plate, with an initial density of 3×10^4 per well, and with 1 ml of 2% FBS-containing MEM medium per well. The cells were incubated in an incubator (37° C., 5% CO2) overnight, and the medium was removed until the cells adhered to the plate. Then, fresh 2% FBS-containing MEM medium was simultaneously added into each well of the culture plate. The cells were infected with a JEV T1P1 virus strain, wherein the amount of JEV T1P1 used to infect BHK-21 cells was a multiplicity of infection (M.O.I.)=0.1, and the amount of JEV T1P1 used to infect TE671 cells was M.O.I.=0.05. Different concentrations of compound 1 (final concentrations were 0, 2.5, 25 and 125 μM, respectively) were added into different wells. The culture plate was placed into an incubator (37° C., 5% CO2) and maintained therein.
When BHK-21 cells were infected with JEV T1P1 virus strain for 48 and 72 hours as indicated in the above experiment (1), the cytopathic effect was observed by photography, while the cytopathic effect of TE671 cells was observed by photography when TE671 cells were infected with the JEV T1P1 virus strain for 36 and 48 hours. In addition, 200 μl culture medium supernatant of both cells was collected from each time point (i.e., 48 and 72 hours), thereby, providing the use for a viral plaque test in Example 4.

EV71 [3] = assay: Enterovirus replication, plaque test in RD cells; assay type: cell-based, enterovirus type 71; details: Enterovirus A, 36 h, read-out: inhibitory rate of EV 71 replication
Protocol: The RD cells were cultured in a 24-well culture plate with an initial density of 3×10^4 per well, as well as with 1 ml of 2% FBS-containing MEM medium per well. The cells were incubated in an incubator (37° C., 5% CO2) overnight. The medium was removed, and then, 1 ml of fresh 2% FBS-containing MEM medium was simultaneously added into each well. The RD cells were infected with an EV71 virus strain (M.O.I.=0.1). Different concentrations of compound 1 (final concentrations were 0, 2.5, 25 and 125 μM) were added into different wells respectively. RD cells were incubated in an incubator (37° C., 5% CO2) for 36 hours, and then the viral medium was collected for the following plaque test.
The RD cells were cultured in a 6-well culture plate, and incubated in an incubator (37° C., 5% CO2) overnight. The medium was removed, and then 200 μl of the above 10^4 times diluted viral medium was added into each well. The cells were infected for 1 hour. Then, 3 ml of a 3% agarose covering solution was added into each well. The cells were incubated in an incubator (37° C., 5% CO2) for 3 days. The covering solution was removed. Methyl blue was added into each well, and the plate was placed at room temperature overnight, and then washed with clear water, and dried. The number of plaques was counted to calculate the virus titer and inhibitory rate.

JEV T1P1 [4] = assay: Viral plaque test, JEV T1P1 replication in BHK-21 cells; assay type: cell-based, Japanese encephalitis virus; details: treated for 48 or 72 hours
Protocol: as §1, with “therein. […]” for “therein.”
(§2) BHK-21 cells were cultured in a 6-well culture plate at an initial density of 3×10^5 per well with 2 ml of 2% FBS-containing MEM medium per well. […] The cells were washed with clear water, and then the viral plaques were counted to calculate the virus titer.

JEV T1P1 [5] = assay: Viral plaque test, JEV T1P1 replication in TE671 cells; assay type: cell-based, Japanese encephalitis virus; details: treated for 36 or 48 hours
Protocol: as §1, with “therein. […]” for “therein.”
as §2

Compound: CCOC(=O)C1=C(Nc2cc(C)cc(C)c2)OCC1=O [Compound 1, ethyl 2-(3′,5′-dimethylanilino)-4-oxo-4,5-dihydrofuran-3-carboxylate]
- Cell survival rate (EV71 [1]; EV71 M.O.I.=0.1, IFN-β 100 unit/ml + Compound 1 2.5 μM): 46.9%
- Cell survival rate (EV71 [1]; EV71 M.O.I.=0.1, IFN-β 100 unit/ml + Compound 1 25 μM): 55.86%
- Cell survival rate (EV71 [1]; EV71 M.O.I.=0.1, IFN-β 100 unit/ml + Compound 1 125 μM): 83.3%
- EV71-induced cytopathic effect (EV71 [1]; infected 36 hours, combination of compound 1 and 100 units/ml of IFN-β): effectively inhibited
- Cell survival rate (EV71 [1]; no EV71, no IFN-β, Compound 1 125 μM): 86.85%
- JEV T1P1-induced cytopathic effect (JEV T1P1 [2]; infected 48 hours, M.O.I.=0.1, compound 25 μM simultaneously): significantly reduced
- JEV T1P1-induced cytopathic effect (JEV T1P1 [2]; infected 72 hours, M.O.I.=0.1, compound 125 μM simultaneously): effectively inhibited
- inhibition at 2.5 µM (EV71 [3]): 4.6%
- inhibition at 25 µM (EV71 [3]): 23%
- inhibition at 125 µM (EV71 [3]): 24.6%
- replication of JEV T1P1 (virus titer) (JEV T1P1 [4]): significantly decreased
- replication of JEV T1P1 (virus titer) (JEV T1P1 [5]): significantly decreased
